Where “and” joins values, the source holds several entries; their conditions need not be identical. Equal values may be shown once. Toxic doses and inconclusive results are not listed.
Test system: CD2F1 mice, L1210 leukemia ip, survival T/C
Assay: NCI In Vivo Anticancer Drug Screen. Data for tumor model L1210 Leukemia (intraperitoneal) in CD2F1 (CDF1) mice
Conditions: higher = longer survival
Summary of the method: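 Each value reflects a quotient of treated over vehicle control outcomes in mice with a transplanted tumor.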

[1] = endpoint: mean survival time, dose: 100.0 mg/kg/injection, schedule: Q04DX002 (ip), vehicle: saline with Tween-80
[2] = endpoint: mean survival time, dose: 200.0 mg/kg/injection, schedule: Q04DX002 (ip), vehicle: saline with Tween-80
[3] = endpoint: mean survival time, dose: 400.0 mg/kg/injection, schedule: Q04DX002 (ip), vehicle: saline with Tween-80
[4] = endpoint: mean survival time, dose: 100.0 mg/kg/injection, schedule: Q01DX001 (ip), vehicle: saline
[5] = endpoint: mean survival time, dose: 200.0 mg/kg/injection, schedule: Q01DX001 (ip), vehicle: saline
[6] = endpoint: mean survival time, dose: 400.0 mg/kg/injection, schedule: Q01DX001 (ip), vehicle: saline

With `CC(=O)Cc1cc(=O)n(C2OC(COC(=O)c3ccccc3)C(OC(=O)c3ccccc3)C2OC(=O)c2ccccc2)c(=O)[nH]1` (stereo unspecified) the T/C (endpoint: mean survival time, dose: 12.5 mg/kg/injection, schedule: Q01DX005 (ip), vehicle: distilled water + Tween-80) was 97 % of control, the T/C (endpoint: mean survival time, dose: 25.0 mg/kg/injection, schedule: Q01DX005 (ip), vehicle: distilled water + Tween-80) was 97 % of control and the T/C (endpoint: mean survival time, dose: 50.0 mg/kg/injection, schedule: Q01DX005 (ip), vehicle: distilled water + Tween-80) was 105 % of control. The T/C (endpoint: mean survival time, dose: 100.0 mg/kg/injection, schedule: Q01DX005 (ip), vehicle: distilled water + Tween-80) was 95 % of control and the T/C (endpoint: mean survival time, dose: 200.0 mg/kg/injection, schedule: Q01DX005 (ip), vehicle: distilled water + Tween-80) was 100 % of control.
`Nc1nc2c(ncn2-c2ccc(Cl)c(Cl)c2)c(=O)[nH]1` was tested, and the T/C (endpoint: mean survival time, dose: 50.0 mg/kg/injection, schedule: Q04DX002 (ip), vehicle: saline with Tween-80) was 98 % of control, the T/C [1] was 93 % of control and 97 % of control and the T/C [2] was 97 % of control. For the same compound, the T/C [3] was 93 % of control.
In the case of `CC(=O)OC1(c2ccccc2)OC(=O)c2ccccc21` (stereo unspecified), the T/C [1] is reported as 97 % of control, the T/C [2] is reported as 91 % of control and the T/C [3] is reported as 108 % of control.
For `CC(=O)OC1C2C=CC1C1CC21` (stereo unspecified), the T/C [4] was 96 % of control, the T/C [5] was 100 % of control and the T/C [6] was 98 % of control.
With `CC12CCCC(CCCO)(C1)NC(=O)C2` (stereo unspecified) the T/C [4] was 101 % of control, the T/C [5] was 101 % of control and the T/C [6] was 101 % of control.
`Cc1n[nH]c2ccc(Br)cc2c1=O` was tested, and the T/C (endpoint: mean survival time, dose: 50.0 mg/kg/injection, schedule: Q01DX009 (ip), vehicle: saline with Tween-80) was 97 % of control, the T/C (endpoint: mean survival time, dose: 100.0 mg/kg/injection, schedule: Q01DX009 (ip), vehicle: saline with Tween-80) was 91 % of control and the T/C (endpoint: mean survival time, dose: 100.0 mg/kg/injection, schedule: Q04DX003 (ip), vehicle: saline with Tween-80) was 101 % of control. For the same compound, the T/C (endpoint: mean survival time, dose: 200.0 mg/kg/injection, schedule: Q01DX009 (ip), vehicle: saline with Tween-80) was 101 % of control and the T/C (endpoint: mean survival time, dose: 200.0 mg/kg/injection, schedule: Q04DX003 (ip), vehicle: saline with Tween-80) was 87 % of control.
With `O=C(O)c1ccsc1` the T/C (endpoint: mean survival time, dose: 37.5 mg/kg/injection, schedule: Q04DX003 (ip), vehicle: saline with Tween-80) was 97 % of control and the T/C (endpoint: mean survival time, dose: 75.0 mg/kg/injection, schedule: Q04DX003 (ip), vehicle: saline with Tween-80) was 97 % of control.
In the case of `CCCCCCCCCCCOc1ccccc1Cl`, the T/C [1] is reported as 90 % of control, the T/C [2] is reported as 93 % of control and the T/C [3] is reported as 93 % of control.
For `C=C1C(C)C2C(Cc3ccccc3)NC(=O)C23C(OC(C)=O)/C=C/C(C)(O)CC(C)C/C=C/C3C1O` (stereo unspecified), the T/C (endpoint: mean survival time, dose: 0.37 mg/kg/injection, schedule: Q01DX009 (ip), vehicle: Klucel (hydroxypropylcellulose) (HPC)) was 95 % of control, the T/C (endpoint: mean survival time, dose: 0.75 mg/kg/injection, schedule: Q01DX009 (ip), vehicle: Klucel (hydroxypropylcellulose) (HPC)) was 100 % of control and the T/C (endpoint: mean survival time, dose: 1.5 mg/kg/injection, schedule: Q01DX009 (ip), vehicle: Klucel (hydroxypropylcellulose) (HPC)) was 96 % of control. For the same compound, the T/C (endpoint: mean survival time, dose: 3.0 mg/kg/injection, schedule: Q01DX009 (ip), vehicle: Klucel (hydroxypropylcellulose) (HPC)) was 96 % of control, the T/C (endpoint: mean survival time, dose: 6.0 mg/kg/injection, schedule: Q01DX009 (ip), vehicle: Klucel (hydroxypropylcellulose) (HPC)) was 105 % of control and the T/C (endpoint: mean survival time, dose: 12.0 mg/kg/injection, schedule: Q01DX009 (ip), vehicle: Klucel (hydroxypropylcellulose) (HPC)) was 105 % of control. The T/C (endpoint: mean survival time, dose: 375.0 micrograms/kg/injection, schedule: Q01DX009 (ip), vehicle: Klucel (hydroxypropylcellulose) (HPC)) was 106 % of control, the T/C (endpoint: mean survival time, dose: 750.0 micrograms/kg/injection, schedule: Q01DX009 (ip), vehicle: Klucel (hydroxypropylcellulose) (HPC)) was 96 % of control and the T/C (endpoint: mean survival time, dose: 1500.0 micrograms/kg/injection, schedule: Q01DX009 (ip), vehicle: Klucel (hydroxypropylcellulose) (HPC)) was 104 % of control. The T/C (endpoint: mean survival time, dose: 3000.0 micrograms/kg/injection, schedule: Q01DX009 (ip), vehicle: Klucel (hydroxypropylcellulose) (HPC)) was 101 % of control and the T/C (endpoint: mean survival time, dose: 6000.0 micrograms/kg/injection, schedule: Q01DX009 (ip), vehicle: Klucel (hydroxypropylcellulose) (HPC)) was 96 % of control.
For `COc1cc(C(CC(C)=O)c2cc3c(cc2OC(C)=O)OCO3)cc(OC)c1OC` (stereo unspecified) (tested in a mixture with another compound), the T/C (endpoint: median survival time, dose: 15.0 mg/kg/injection, schedule: Q01DX005 (ip), vehicle: saline with Tween-80) was 103 % of control, the T/C (endpoint: median survival time, dose: 30.0 mg/kg/injection, schedule: Q01DX005 (ip), vehicle: saline with Tween-80) was 101 % of control and the T/C (endpoint: median survival time, dose: 43.2 mg/kg/injection, schedule: Q01DX005 (ip), vehicle: saline with Tween-80) was 105 % of control. For the same compound, the T/C (endpoint: median survival time, dose: 60.0 mg/kg/injection, schedule: Q01DX005 (ip), vehicle: saline with Tween-80) was 114 % of control, the T/C (endpoint: median survival time, dose: 72.0 mg/kg/injection, schedule: Q01DX005 (ip), vehicle: saline with Tween-80) was 113 % of control and 110 % of control and the T/C (endpoint: median survival time, dose: 200.0 mg/kg/injection, schedule: Q01DX005 (ip), vehicle: saline with Tween-80) was 162 % of control and 168 % of control. For the same compound, the T/C (endpoint: median survival time, dose: 240.0 mg/kg/injection, schedule: Q01DX005 (ip), vehicle: saline with Tween-80) was 103 % of control.

From PubChem BioAssay AID256 (DTP/NCI, 2004)
